The text below walks through data of patent US20250289789A1, “REVERSIBLE LYSINE COVALENT MODIFIERS OF CDK2 AND USES THEREOF” (Terremoto Biosciences, Inc., priority 2023, published 2025).

Assay [1] concerns Phospho-Rb Ser807/811 in OVCAR3 cells. Kind of assay: OVCAR3 Phospho-Rb Ser807/811 HTRF assay. It counts as cell-based. The note with it: Homo sapiens, OVCAR-3, 1 h, read-out: pRb-OVCAR3 IC50. As for the experimental part: Cells were trypsinized and resuspended in 1 mM hydroxyurea (Sigma; H8627), 90% RPMI and 10% fetal bovine serum. […] Dose response curve normalized to DMSO control was plotted using four-parameter logistic model for IC50 calculation.
On the technique in general: Time-resolved FRET reads energy transfer from a long-lived donor to a nearby acceptor.

The target in another assay is pCDK2-CCNE1 proteins (Homo sapiens, UniProt P24941). Kind of assay: Identification of covalent binding by intact mass spectrometry, with and without competitor PF-06873600. The note with it: for Covalent complex formation with CDK2 protein (intact mass spectra after sodium borohydride reduction) / Binding pocket by competition: complex formation in presence of molar excess PF-06873600: pCDK2-CCNE1 1 μM, compound 1.5 μM; for Covalent complex formation with CDK2 protein (intact mass spectra after sodium borohydride reduction): 1 hour at room temperature or 37° C., no competitor; for Observed mass value of the covalent complex between compound and CDK2 protein: intact mass spectrometry after borohydride reduction, unmodified CDK2 34096-34097 Da; for Binding pocket by competition: complex formation in presence of molar excess PF-06873600: competitor PF-06873600 20 μM. As for the experimental part:
pCDK2-CCNE1 proteins (1 μM) were treated with a compound (1.5 μM) from Table 4 for 1 hour at room temperature or 37° C., with and without competitor molecule PF-06873600 (20 μM final concentration) as a specificity control. As used herein, the competitor molecule is
As used herein, the competitor molecule is 6-(difluoromethyl)-8-((1R,2R)-2-hydroxy-2-methylcyclopentyl)-2-((1-(methylsulfonyl)piperidin-4-yl)amino)pyrido[2,3-d]pyrimidin-7(8H)-one (PF-06873600). Reversible imines were captured by reductive amination with the addition of 5 mM sodium borohydride at room temperature for 5 min. Reduction reactions were quenched by diluting the sample in equal volume of 1% trifluoroacetic acid (v/v) in acetonitrile, then analyzed by LC-MS. Deconvoluted monoisotopic intensities of unmodified and compound-modified mass peaks were compared.
FIGS. 1A to 1P provide intact mass spectra for pCDK2-CCNE1 proteins after incubation with compounds of the present disclosure and subsequent sodium borohydride reduction. […] Further, FIGS. 1A to 1P each provide intact mass spectra following the incubation of pCDK2-CCNE1 proteins with a compound of the present disclosure both in the absence of a competitor molecule (i.e., PF-06873600, a molecule known to bind to and inhibit the function of CDK2); and in the presence of a significant stoichiometric excess of a competitor molecule PF-06873600.
FIGS. 2A to 2N provide intact mass spectra for pCDK2-CCNE1 proteins after incubation with compounds of the present disclosure and subsequent sodium borohydride reduction.

Assay [2] deals with T1, CDK1-NanoLuc fusion with CCNB1 in 293T or 293 cells (Homo sapiens, UniProt P06493).
T1 construct: host or cells: 293T (ATCC CRL-3216) or 293 (ATCC CRL-1573)
T1 sequence (P06493 whole entry, the tested form may be a part): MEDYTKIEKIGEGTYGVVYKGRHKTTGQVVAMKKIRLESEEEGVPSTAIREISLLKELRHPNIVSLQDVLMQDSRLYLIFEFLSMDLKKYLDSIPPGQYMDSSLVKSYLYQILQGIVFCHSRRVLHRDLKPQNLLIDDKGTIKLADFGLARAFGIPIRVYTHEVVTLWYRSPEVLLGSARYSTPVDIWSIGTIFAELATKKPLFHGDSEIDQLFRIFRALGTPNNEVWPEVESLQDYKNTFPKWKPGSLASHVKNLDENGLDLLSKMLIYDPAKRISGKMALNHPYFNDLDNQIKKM
T1 sequence (P14635 whole entry partner, the tested form may be a part): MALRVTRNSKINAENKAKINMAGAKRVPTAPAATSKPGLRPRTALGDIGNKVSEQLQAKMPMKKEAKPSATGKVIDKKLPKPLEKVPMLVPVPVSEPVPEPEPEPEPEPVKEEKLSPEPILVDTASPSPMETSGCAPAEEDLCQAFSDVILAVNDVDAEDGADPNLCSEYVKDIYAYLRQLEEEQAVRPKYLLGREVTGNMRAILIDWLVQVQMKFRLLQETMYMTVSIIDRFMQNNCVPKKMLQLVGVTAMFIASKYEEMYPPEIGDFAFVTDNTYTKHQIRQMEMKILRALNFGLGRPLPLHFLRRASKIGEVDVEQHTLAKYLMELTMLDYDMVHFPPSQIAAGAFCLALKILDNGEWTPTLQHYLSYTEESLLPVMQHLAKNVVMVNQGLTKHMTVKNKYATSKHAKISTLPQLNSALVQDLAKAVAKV
Kind of assay: NanoBRET Target Engagement (TE) Intracellular Kinase Assay, CDK1/CCNB1. The following applies: NanoBRET TE intracellular kinase assay, 2-hour incubation, read-out: NanoBRET-CDK1/B1 IC50. It counts as cell-based. Summed up: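 IC50 derived by four-parameter logistic fit of DMSO-normalized acceptor/donor (610/450 nm) BRET ratio. Compound and Tracer K-10 were applied together for 2 h at 37° C to 293 or 293T cells transfected 24 h earlier with CDK1-NanoLuc fusion and cyclin B1.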

The target in assay [3] is T2, CDK2-NanoLuc fusion with CCNE1 in 293T or 293 cells (Homo sapiens, UniProt P24941).
T2 construct: host or cells: 293T (ATCC CRL-3216) or 293 (ATCC CRL-1573)
Kind of assay: NanoBRET Target Engagement (TE) Intracellular Kinase Assay, CDK2/CCNE1. It counts as cell-based. The following applies: 2-hour incubation. In general terms: BRET reads energy transfer from a luciferase to a nearby fluorophore.

Assay [4] has as its target T3, CDK4-NanoLuc fusion with CCND1 in 293T or 293 cells (Homo sapiens, UniProt P11802).
T3 construct: host or cells: 293T (ATCC CRL-3216) or 293 (ATCC CRL-1573)
The assay is described as follows: NanoBRET Target Engagement (TE) Intracellular Kinase Assay, CDK4/CCND1. The following applies: NanoBRET TE intracellular kinase assay, 2-hour incubation, read-out: NanoBRET-CDK4/D1 IC50. It counts as cell-based.

Where [5] appears, read: OVCAR3 cells, Phospho-Rb Ser807/811 HTRF, 1 hour incubation.
Where [6] appears, read: NanoBRET TE intracellular kinase assay, read-out: NanoBRET-CDK2/E1 IC50.
Setting [7] is: NanoBRET-CDK2/E1 IC50, NanoBRET TE intracellular kinase assay.

Entries after “also recorded” stand apart in the source; their conditions may differ. Where two headings read alike, the source gives them in different places.

T3 sequence (P11802 whole entry, the tested form may be a part): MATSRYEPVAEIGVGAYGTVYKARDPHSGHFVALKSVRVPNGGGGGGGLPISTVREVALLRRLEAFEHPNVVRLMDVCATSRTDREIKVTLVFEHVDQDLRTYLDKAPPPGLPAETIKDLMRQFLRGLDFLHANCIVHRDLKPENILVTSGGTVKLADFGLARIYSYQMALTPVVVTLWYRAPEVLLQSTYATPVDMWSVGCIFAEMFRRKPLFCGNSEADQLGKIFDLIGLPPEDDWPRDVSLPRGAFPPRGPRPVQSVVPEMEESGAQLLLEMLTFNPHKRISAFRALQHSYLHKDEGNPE
T3 sequence (P24385 whole entry partner, the tested form may be a part): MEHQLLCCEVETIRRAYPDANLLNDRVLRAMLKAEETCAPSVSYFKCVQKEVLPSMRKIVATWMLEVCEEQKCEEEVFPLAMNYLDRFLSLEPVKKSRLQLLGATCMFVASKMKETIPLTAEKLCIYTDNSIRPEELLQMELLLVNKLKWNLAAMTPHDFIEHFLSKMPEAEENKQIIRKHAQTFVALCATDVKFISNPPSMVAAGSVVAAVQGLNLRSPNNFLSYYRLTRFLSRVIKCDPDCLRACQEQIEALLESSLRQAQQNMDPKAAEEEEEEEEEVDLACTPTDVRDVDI

As to `CC(C)NC(=O)O[C@@H]1CC[C@H](c2cc(NC(=O)Nc3ccc(O)c(C=O)c3)n[nH]2)C1` [Compound 33, (1R,3S)-3-(5-{[(3-formyl-4-hydroxyphenyl)carbamoyl]amino}-2H-pyrazol-3-yl)cyclopentyl N-isopropylcarbamate], the IC50 in assay [1] (setting [5]) is 361 nM; in assay [2], 71.6 nM; in assay [3] (setting [6]), 11.3 nM; in assay [4], 361 nM. In addition, the “Covalent complex formation with CDK2 protein (intact mass spectra after sodium borohydride reduction)” value on pCDK2-CCNE1 proteins is listed as “resulted in covalent complex formation”.
Consider `CC(C)NC(=O)O[C@@H]1CC[C@H](c2cc(NC(=O)c3cc(-c4c(F)ccc(O)c4C=O)nn3C)n[nH]2)C1` [Compound 45, (1R,3S)-3-(3-(3-(6-fluoro-2-formyl-3-hydroxyphenyl)-1-methyl-1H-pyrazole-5-carboxamido)-1H-pyrazol-5-yl)cyclopentyl isopropylcarbamate], for which the IC50 turned out to be 114 nM in assay [1] (setting [5]), 6.81 nM in assay [2], 2.8 nM in assay [3] (setting [7]) and 1580 nM in assay [4]. The “Observed mass value of the covalent complex between compound and CDK2 protein” value (“Observed mass value” below) on pCDK2-CCNE1 proteins amounted to 34579 Da.
For the compound `CC(=O)Nc1cccc(OCC(=O)Nc2cc([C@H]3CC[C@@H](OC(=O)NC(C)C)C3)[nH]n2)c1C=O` [Compound 46, (1R,3S)-3-{5-[2-(3-acetamido-2-formylphenoxy)acetamido]-2H-pyrazol-3-yl}cyclopentyl N-isopropylcarbamate], the IC50 in assay [1] (setting [5]) is 2410 nM; in assay [2] it was 692 nM; in assay [3] (setting [6]) it was 20.6 nM; in assay [4] it was 4170 nM. Moreover, the “Covalent complex formation with CDK2 protein (intact mass spectra after sodium borohydride reduction)” value on pCDK2-CCNE1 proteins was “resulted in covalent complex formation”.
Regarding `CC(C)NC(=O)O[C@@H]1CC[C@H](c2cc(NC(=O)COc3cccc(NS(C)(=O)=O)c3C=O)n[nH]2)C1` [Compound 49, (1R,3S)-3-{5-[2-(2-formyl-3-methanesulfonamidophenoxy)acetamido]-2H-pyrazol-3-yl}cyclopentyl N-isopropyl carbamate], the IC50 in assay [1] (setting [5]) was 161 nM; in assay [2] it was 70.2 nM; in assay [3] (setting [6]), 24.5 nM; in assay [4], over 10000 nM. On pCDK2-CCNE1 proteins, the “Observed mass value” value was 34588 Da.
Turning to `CNC(=O)O[C@@H]1CC[C@H](c2cc(NC(=O)c3cc(-c4cccc(O)c4C=O)nn3C)n[nH]2)C1` [Compound 50, (1R,3S)-3-{5-[5-(2-formyl-3-hydroxyphenyl)-2-methylpyrazole-3-amido]-2H-pyrazol-3-yl}cyclopentyl N-methylcarbamate; trifluoroacetic acid], the IC50 in assay [1] (setting [5]) was 382 nM; in assay [2] it was 49.7 nM; in assay [3] (setting [6]) it was 8.63 nM; in assay [4] it was over 10000 nM. Also, the “Covalent complex formation with CDK2 protein (intact mass spectra after sodium borohydride reduction)” value on pCDK2-CCNE1 proteins is “resulted in covalent complex formation”.
For the compound `C#Cc1cccc(OCC(=O)Nc2cc([C@H]3CC[C@@H](OC(=O)NC(C)C)C3)[nH]n2)c1C=O` [Compound 51, (1R,3S)-3-(3-(2-(3-ethynyl-2-formylphenoxy)acetamido)-1H-pyrazol-5-yl)cyclopentyl isopropylcarbamate], the IC50 in assay [1] (setting [5]) is 1150 nM; in assay [2] it was 354 nM; in assay [3] (setting [6]), 7.58 nM; in assay [4], 4100 nM. In addition, the “Observed mass value” value at pCDK2-CCNE1 proteins turned out to be 34519 Da. Further, the “Covalent complex formation with CDK2 protein (intact mass spectra after sodium borohydride reduction)” value on pCDK2-CCNE1 proteins is recorded as “formed a covalent complex with CDK2 protein”. Also, the “Binding pocket by competition: complex formation in presence of molar excess PF-06873600” value at pCDK2-CCNE1 proteins is reported as “bound to the same binding pocket of CDK2 as the competitor molecule PF-06873600”.
As to `C#Cc1cccc(-c2cc(C(=O)Nc3cc([C@H]4CC[C@@H](OC(=O)NC(C)C)C4)[nH]n3)n(C)n2)c1C=O` [Compound 52, (1R,3S)-3-(3-(3-(3-ethynyl-2-formylphenyl)-1-methyl-1H-pyrazole-5-carboxamido)-1H-pyrazol-5-yl)cyclopentyl isopropylcarbamate], the IC50 worked out at 2430 nM in assay [1] (setting [5]), 383 nM in assay [2], 21.7 nM in assay [3] (setting [6]) and 543 nM in assay [4]. Further, at pCDK2-CCNE1 proteins, the “Covalent complex formation with CDK2 protein (intact mass spectra after sodium borohydride reduction)” value is recorded as “resulted in covalent complex formation”.
Take `COc1cc(O)c(C=O)c(OCC(=O)Nc2cc([C@H]3CC[C@@H](OC(=O)NC(C)C)C3)[nH]n2)c1` [Compound 64, (1R,3S)-3-{5-[2-(2-formyl-3-hydroxy-5-methoxyphenoxy)acetamido]-2H-pyrazol-3-yl}cyclopentyl N-isopropylcarbamate]: the IC50 in assay [1] (setting [5]) was 33.2 nM; in assay [2], 9.52 nM; in assay [3] (setting [6]) it was 2.76 nM; in assay [4], over 6430 nM. The “Observed mass value” value on pCDK2-CCNE1 proteins is on record as 34539 Da. Moreover, the “Covalent complex formation with CDK2 protein (intact mass spectra after sodium borohydride reduction)” value at pCDK2-CCNE1 proteins is “resulted in covalent complex formation”.
For the compound `CC(C)NC(=O)O[C@@H]1CC[C@H](c2cc(NC(=O)c3ccnc(Oc4cccc(O)c4C=O)c3)n[nH]2)C1` [Compound 69, (1R,3S)-3-{5-[2-(2-formyl-3-hydroxyphenoxy)pyridine-4-amido]-2H-pyrazol-3-yl}cyclopentyl N-isopropylcarbamate; trifluoroacetic acid], the IC50 in assay [1] was 730 nM; in assay [2], 79 nM; in assay [3] (setting [7]), 1.92 nM; in assay [4] it was 1950 nM. Also, the “Observed mass value” value on pCDK2-CCNE1 proteins is on record as 34574 Da. At pCDK2-CCNE1 proteins (trifluoroacetic acid), the “Covalent complex formation with CDK2 protein (intact mass spectra after sodium borohydride reduction)” value is “formed a covalent complex with CDK2 protein; also recorded: resulted in covalent complex formation”. The “Binding pocket by competition: complex formation in presence of molar excess PF-06873600” value on pCDK2-CCNE1 proteins is reported as “bound to the same binding pocket of CDK2 as the competitor molecule PF-06873600”.
Take `CC1(NC(=O)O[C@@H]2CC[C@H](c3cc(NC(=O)COc4cccc(O)c4C=O)n[nH]3)C2)CC1` [Compound 82, (1R,3S)-3-{5-[2-(2-formyl-3-hydroxyphenoxy)acetamido]-2H-pyrazol-3-yl}cyclopentyl N-(1-methylcyclopropyl)carbamate; trifluoroacetic acid]: the IC50 is 43.2 nM in assay [1] (setting [5]), 11.3 nM in assay [2], 3.32 nM in assay [3] (setting [6]) and 4420 nM in assay [4]. Moreover, at pCDK2-CCNE1 proteins, the “Observed mass value” value was determined as 34523 Da. Besides, the “Covalent complex formation with CDK2 protein (intact mass spectra after sodium borohydride reduction)” value at pCDK2-CCNE1 proteins is “resulted in covalent complex formation”.
As for `COc1cc(OC)c(C=O)c(OCC(=O)Nc2cc([C@H]3CC[C@@H](OC(=O)NC(C)C)C3)[nH]n2)c1` [Compound 103, (1R,3S)-3-{5-[2-(2-formyl-3,5-dimethoxyphenoxy)acetamido]-2H-pyrazol-3-yl}cyclopentyl N-isopropylcarbamate], the IC50 turned out to be 31.7 nM in assay [1] (setting [5]), 5.66 nM in assay [2], 1.43 nM in assay [3] (setting [6]) and 3790 nM in assay [4]. In addition, the “Observed mass value” value on pCDK2-CCNE1 proteins worked out at 34554 Da. The “Covalent complex formation with CDK2 protein (intact mass spectra after sodium borohydride reduction)” value on pCDK2-CCNE1 proteins was “resulted in covalent complex formation”.
